Data from US8445636B2, “Antimicrobial and anticancer lipopeptides” (Yeda Research & Development Co. Ltd., priority 2003, dated 2013).
≈ marks a conversion by molar mass, not a printed value. Non-standard residues stand in square brackets, D forms with d. Residues, ends and D or L forms follow the SMILES beside them. *: point of attachment. Palmitoyl = CCCCCCCCCCCCCCCC(=O)*; Myristoyl = CCCCCCCCCCCCCC(=O)*

Columns and labels:
Format in all cases: cell-based
E. coli D21 = settings: D21, pH 7.4
[1] = test system: Acinetobacter baumannii ATCC 19606; settings: ATCC 19606, pH 7.4
In short: (§1)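 Broth microdilution: bacteria at 1×10^6 CFU/ml in LB medium (pH 7.4 unless stated; pH 5.5 also tested) mixed 1:1 with 2-fold serial lipopeptide dilutions in water, 18-20 h at 37° C. Growth read at 600 nm; MIC taken as lowest concentration giving 100% growth inhibition.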

M. laleus = settings: Table 3, short lipopeptides; pH 7.4
In short: as §1

[2] = test system: Pseudomonas aeruginosa ATCC 27853; settings: ATCC 27853, pH 7.4
In short: as §1

[3] = test system: Staphylococcus aureus ATCC 6538P; settings: ATCC 6538, pH 7.4
In short: as §1

[4] = test system: Candida albicans ATCC 10231; test: microbe, parasite or virus in culture; settings: ATCC 10231, pH 7.4; for MIC: read-out: Minimal Inhibitory Concentration, Candida Albicans (ATCC 10231)
In short: (§2)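 Broth microdilution in RPMI 1640/0.165 M MOPS, 1×10^4 CFU/ml inoculum, 2-fold serial lipopeptide dilutions in water, pH 7.4 unless stated (pH 5.5 alternative). Incubated 24–48 h at 35 °C with agitation; growth read at A620. MIC = lowest concentration giving 100% growth inhibition.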

[5] = test system: Cryptococcus neoformans ATCC MYA-422; test: microbe, parasite or virus in culture; settings: ATCC MYA-422, pH 7.4
[6] = test system: Aspergillus fumigatus ATCC 26430; test: microbe, parasite or virus in culture; settings: ATCC 26430, pH 7.4
[7] = test system: Enterobacter cloacae ATCC 49141; settings: ATCC 49141, pH 7.4
In short: as §1

[8] = test system: Enterococcus faecalis ATCC 29212; settings: ATCC 29212, pH 7.4
In short: as §1

[9] = test system: Escherichia coli ATCC 25922; settings: ATCC 25922, pH 7.4
In short: as §1

[10] = test system: methicilin-resistant Staphylococcus aureus (MRSA) ATCC 700698; settings: ATCC 700698, pH 7.4
In short: as §1

[11] = test system: vancomycin-resistant Enterococcus faecium (VRE) ATCC 700221; settings: for Minimal Inhibitory Concentration, E. faecium (VRE): ATCC 700221, pH 7.4
In short: as §1

B. subtilis ATCC 6051 = settings: ATCC 6051, pH 7.4
[12] = test system: Cryptococcus neoformans ATCC 66031; test: microbe, parasite or virus in culture; settings: ATCC 66031, pH 7.4
In short: as §2

[13] = test system: Aspergillus flavus ATCC 9643; settings: ATCC 9643, pH 7.4
[14] = test system: Aspergillus niger ATCC 9642; settings: ATCC 9642, pH 7.4
Procedure: The antifungal activity of the lipopeptides was examined in sterile 96-well plates (Nunc F96 microtiter plates) in a final volume of 200 μL as follows: 100 µl of a suspension containing fungi at a concentration of 1×10^4 Colony-Forming Units (CFU)/ml in culture medium (RPMI 1640, 0.165 M MOPS with L-glutamine, without NaHCO3) at pH 7.4 or pH 5.5 (adjustment of the pH was done by diluted solutions of HCl and NaOH) were added to 100 μl of water containing the peptide in serial 2-fold dilutions in water. The fungi were incubated in the presence of the lipopeptides for 24-48 h at 35° C. in a Binder KB115 incubator under agitation. Growth inhibition was determined by measuring the absorbance at 620 nm with a Microplate autoreader E1309 (Bio-Tek Instruments). Antifungal activity is expressed as the minimal inhibitory concentration (MIC), the concentration at which 100% inhibition of fungi growth was observed after the incubation time mentioned above. The fungi used were: Aspergillus niger ATCC 9642, Candida albicans ATCC 10231 and Cryptococcus neoformans ATCC 66031. If not indicated otherwise, the fungi growth was detected at pH 7.4.

SMILES	Minimal Inhibitory Concentration, A. baumannii ATCC 19606 [1] [µM]	Minimal Inhibitory Concentration, P. aeruginosa ATCC 27853 [2] [µM]	Minimal Inhibitory Concentration, S. aureus ATCC 6538P [3] [µM]	MIC [4] [µM]	Minimal Inhibitory Concentration, A. Baumaannii [1] [µM]	Minimal Inhibitory Concentration, E. cloacae [7] [µM]	Minimal Inhibitory Concentration, E. faecalis [8] [µM]	Minimal Inhibitory Concentration, E. coli [9] [µM]	Minimal Inhibitory Concentration, P. Aeruginosa [2] [µM]	Minimal Inhibitory Concentration, S. aureus [3] [µM]	Minimal Inhibitory Concentration, S. aureus (MRSA) [10] [µM]	Minimal Inhibitory Concentration, E. faecium (VRE) [11] [µM]	Minimal Inhibitory Concentration, C. albicans ATCC 10231 [4] [µM]	Minimal Inhibitory Concentration, C. neoformans ATCC 66031 [12] [µM]	Minimal Inhibitory Concentration, A. fumigatus ATCC 26430 [6] [µM]	also measured
CCCCCCCCCCCCCCCC(=O)N[C@@H](CCCCN)C(=O)N[C@H](CCCCN)C(N)=O [PA-KK, Palmitoyl-Lys-D-Lys-NH2]	100	100	6.25	12.5 (≈ 6.4 µg/mL)												Minimal Inhibitory Concentration, E. coli-D21 (E. coli D21): 6.25 µM; Minimal Inhibitory Concentration, M. laleus (M. laleus): 3.12 µM; MIC ([5]; read-out: Minimal Inhibitory Concentration, Cyrptococcus neoformans (ATCC MYA-422)): 2.5 µM (≈ 1.28 µg/mL); MIC ([6]; read-out: Minimal Inhibitory Concentration, Aspergillus Fomigatus (ATCC 26430)): 6.25 µM (≈ 3.2 µg/mL)
CCCCCCCCCCCCCCCC(=O)N[C@H](CCCCN)C(=O)NCC(=O)NCC(=O)NCC(=O)N[C@H](CCCCN)C(=O)NCC(=O)NCC(=O)NCC(=O)N[C@H](CCCCN)C(=O)NCC(=O)NCC(=O)N[C@H](CCCCN)C(N)=O [lipopeptide 2, (CH3—(CH2)14—CO—)-D-Lys-Gly-Gly-Gly-D-Lys-Gly-Gly-Gly-D-Lys-Gly-Gly-D-Lys-NH2] (Palmitoyl-[dK]GGG[dK]GGG[dK]GG[dK]-NH2)	25	6.25	12.5	3.125 (≈ 3.83 µg/mL)	25	25	12.5	25	6.25	12.5	12.5	3.125	3.125	6.25	12.5	Minimal Inhibitory Concentration, E. coli (ATCC 25922) [9]: 25 µM; activity against VRE ([11]; in words, summary of Table 4): highly active; Minimal Inhibitory Concentration, B. subtilis (ATCC 6051) (B. subtilis ATCC 6051): 3.125 µM; Minimal Inhibitory Concentration, Cryptococcus neoformans (ATCC MYA-422) [5]: 6.25 µM; Minimal Inhibitory Concentration, Aspergillus fumigatus (ATCC 26430) [6]: 12.5 µM; Minimal Inhibitory Concentration, Aspergillus flavus (ATCC 9643) [13]: 100 µM; Minimal Inhibitory Concentration, Aspergillus niger (ATCC 9642) [14]: 6.25 µM
CCCCCCCCCCCCCC(=O)N[C@@H](CCCCN)C(=O)NCC(=O)NCC(=O)NCC(=O)N[C@@H](CCCCN)C(=O)NCC(=O)NCC(=O)NCC(=O)N[C@@H](CCCCN)C(=O)NCC(=O)NCC(=O)N[C@@H](CCCCN)C(N)=O [lipopeptide 3, (CH3—(CH2)12—CO—)-Lys-Gly-Gly-Gly-Lys-Gly-Gly-Gly-Lys-Gly-Gly-Lys-NH2] (Myristoyl-KGGGKGGGKGGK-NH2)					12.5	6.25	6.25	6.25	6.25	6.25	6.25	12.5	3.125	3.125	6.25	
